Reference: US5530019A, “Indole derivatives useful as testosterone 5α-reductase inhibitors” (Fujisawa Pharmaceutical Co., Ltd., priority 1993, dated 1996)

Biological target: T1, testosterone 5α-reductase (Rattus norvegicus, UniProt P31214)
T1 construct: The prostates were drained, minced, and then homogenized in 3 -4 tissue volumes of medium A; from tissue; host or cells: ventral prostate of mature male Sprague-Dawley rats, resuspended 3,000 g pellet
T1 sequence (P31214 1-254): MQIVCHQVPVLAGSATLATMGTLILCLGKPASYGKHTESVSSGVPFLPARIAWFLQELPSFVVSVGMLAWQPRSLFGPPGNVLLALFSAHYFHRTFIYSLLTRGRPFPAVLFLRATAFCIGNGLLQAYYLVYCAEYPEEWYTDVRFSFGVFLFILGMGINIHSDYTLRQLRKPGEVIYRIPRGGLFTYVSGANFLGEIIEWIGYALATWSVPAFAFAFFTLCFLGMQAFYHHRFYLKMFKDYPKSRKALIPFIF
Experiment: Inhibitory activity on testosterone 5α-reductase in rats (rat ventral prostate suspension, 3H-testosterone)
Format: biochemical, rat (Spraque-Dawley male rats)
Conditions: rat prostatic 5α-reductase; 2.2×10^-9 M testosterone, 50 μM NADPH, pH 6.5, 37° C., 30 minutes
Excerpt: [2]Inhibitory activity on testosterone 5α-reductase in rats:
1,2,6,7-^3 H-testosterone (85-105 Ci/mmol) is a mixture of 1,2,6,7-3H-testosterone and testosterone which includes 85-105 Ci of 1,2,6,7-^3 H-testosterone per mmol of testosterone and is purchased from New England Nuclear, Boston, Mass., U.S.A.
Aquazol-2 (Aquazol-2 Universal LSC Cocktail) trademark, purchased from New England Nuclear, Boston, Mass., U.S.A. ii) Preparation of prostatic testosterone 5α-reductase
Mature Spraque-Dawley male rats (7-8 weeks old) were sacrificed by diethyl ether. The ventral prostates were dissected to be free of their capsules and their combined volume was measured by displacement in several milliliters of ice-cold medium A (0.32M sucrose, 0.1 mM dithiothreitol and 20 mM sodium phosphate, pH 6.5). Unless specified, all the following procedures were carried out at 0 -4. The prostates were drained, minced, and then homogenized in 3 -4 tissue volumes of medium A with Pyrex-glass homogenizer. […]
The reaction solution contains 1 mM dithiothreitol, 40 mM sodium phosphate pH 6.5, 50 μM NADPH, 1,2,6,7-^3 H-testosterone/testosterone (2.2×10^-9 M) and the suspension prepared above ([…]) in a total volume of 565 μl. […] The radioactivity was determined in 5 ml of Aquazol-2 in Packard scintillation counter (PACKARD TRI-CARB 4530), and an inhibitory ratio was calculated.

## CCCCCCCCCCC(=O)c1cn(CCCC(=O)O)c2ccccc12 [(1), 4-(3-Undecanoyl-1-indolyl)butyric acid]
  IC50: 0.44 nM
